The source of these data is PubChem BioAssay AID270 (DTP/NCI, 2004).

In the experiment the test system is BDF1 mice, s.c. Lewis lung carcinoma, T/C %. The experiment can be described thus: NCI In Vivo Anticancer Drug Screen. Data for tumor model Lewis Lung Carcinoma (subcutaneous) in B6D2F1 (BDF1) mice. The procedure, abridged: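 Transplanted tumors grown in mice; compound vs vehicle dosing; endpoint survival or tumor size; ratio T/C.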
[1] abbreviates: endpoint: mean tumor weight, dose: 25.0 mg/kg/injection, schedule: Q01DX011 (ip), vehicle: saline, higher = larger tumour.
Setting [2] is: endpoint: mean tumor weight, dose: 50.0 mg/kg/injection, schedule: Q01DX011 (ip), vehicle: saline, higher = larger tumour.

Molecules are shown by their SMILES. Values joined by “and” are separate entries in the source; they are usually repeats but may differ in a detail not shown here. Equal entries are not always repeated. Records with an inconclusive call do not appear.

Consider `C/C=C(\C)C(=O)O[C@@H]1c2cc3c(cc2-c2c(cc(OC)c(OC)c2OC)[C@@H]2C(=O)OC[C@@H]12)OCO3`, for which the T/C is 99 % of control (endpoint: median survival time, dose: 1.25 mg/kg/injection, schedule: Q01DX009 (ip), vehicle: Klucel (hydroxypropylcellulose) (HPC), higher = longer survival); 110 % of control (endpoint: median survival time, dose: 2.5 mg/kg/injection, schedule: Q01DX009 (ip), vehicle: Klucel (hydroxypropylcellulose) (HPC), higher = longer survival); 101 % of control (endpoint: median survival time, dose: 5.0 mg/kg/injection, schedule: Q01DX009 (ip), vehicle: Klucel (hydroxypropylcellulose) (HPC), higher = longer survival).
Take `CC1CCC2(NC1)OC1CC3C4CCC5CC(OC6OC(CO)C(OC7OC(CO)C(O)C(OC8OCC(O)C(O)C8O)C7OC7OC(CO)C(O)C(O)C7O)C(O)C6O)CCC5(C)C4CCC3(C)C1C2C` (stereo not given): the T/C runs as follows: (endpoint: mean tumor weight, dose: 5.0 mg/kg/injection, schedule: Q01DX011 (sc), vehicle: steriod suspending solution, higher = larger tumour) 104 % of control; (endpoint: mean tumor weight, dose: 10.0 mg/kg/injection, schedule: Q01DX011 (sc), vehicle: steriod suspending solution, higher = larger tumour) 77 % of control; (endpoint: mean tumor weight, dose: 20.0 mg/kg/injection, schedule: Q01DX011 (sc), vehicle: steriod suspending solution, higher = larger tumour) 85 % of control; (endpoint: mean tumor weight, dose: 40.0 mg/kg/injection, schedule: Q01DX011 (sc), vehicle: steriod suspending solution, higher = larger tumour) 94 % of control.
As for `c1ccc(CSc2ncnc3nc[nH]c23)nc1`, the T/C was 59 % of control (endpoint: mean tumor weight, dose: 25.0 mg/kg/injection, schedule: Q01DX011 (ip), vehicle: other, higher = larger tumour); 109 % of control (endpoint: mean tumor weight, dose: 50.0 mg/kg/injection, schedule: Q01DX011 (ip), vehicle: other, higher = larger tumour); 63 % of control (endpoint: mean tumor weight, dose: 100.0 mg/kg/injection, schedule: Q01DX011 (ip), vehicle: other, higher = larger tumour).
As for `CCCCS(=O)CC(CO)NC(=O)/C=C/c1c(C)[nH]c(=O)[nH]c1=O` (stereo not given), the T/C is 101 % of control (endpoint: median survival time, dose: 0.63 mg/kg/injection, schedule: Q01DX009 (ip), vehicle: water, higher = longer survival); 113 % of control (endpoint: median survival time, dose: 2.5 mg/kg/injection, schedule: Q01DX009 (ip), vehicle: water, higher = longer survival); 89 % of control (endpoint: median survival time, dose: 5.0 mg/kg/injection, schedule: Q01DX009 (ip), vehicle: water, higher = longer survival).
In the case of `c1ccc2ncccc2c1`, the T/C is, setting by setting: under setting [1], 81 % of control; under setting [2], 49 % of control.
Regarding `CC[C@@H](C(=O)[C@@H](C)[C@@H](O)[C@H](C)CCc1ccc(C)c(O)c1C(=O)O)[C@H]1O[C@](CC)([C@H]2CC[C@](O)(CC)[C@H](C)O2)C[C@@H]1C`, the T/C by setting is: (endpoint: median survival time, dose: 0.78 mg/kg/injection, schedule: Q01DX009 (ip), vehicle: Klucel (hydroxypropylcellulose) (HPC), higher = longer survival) 113 % of control; (endpoint: median survival time, dose: 1.56 mg/kg/injection, schedule: Q01DX009 (ip), vehicle: Klucel (hydroxypropylcellulose) (HPC), higher = longer survival) 111 % of control; (endpoint: median survival time, dose: 3.12 mg/kg/injection, schedule: Q01DX009 (ip), vehicle: Klucel (hydroxypropylcellulose) (HPC), higher = longer survival) 93 % of control; (endpoint: median survival time, dose: 6.25 mg/kg/injection, schedule: Q01DX009 (ip), vehicle: Klucel (hydroxypropylcellulose) (HPC), higher = longer survival) 96 % of control; (endpoint: median survival time, dose: 25.0 mg/kg/injection, schedule: Q01DX009 (ip), vehicle: Klucel (hydroxypropylcellulose) (HPC), higher = longer survival) 96 % of control.
`Nc1nc(=O)n(C2CC(O)C(CO)O2)cc1Br` (stereo not given): the T/C was 65 % of control (endpoint: mean tumor weight, dose: 50.0 mg/kg/injection, schedule: Q01DX011 (ip), vehicle: carboxymethylcellulose (CMC), higher = larger tumour); 55 % of control (endpoint: mean tumor weight, dose: 100.0 mg/kg/injection, schedule: Q01DX011 (ip), vehicle: carboxymethylcellulose (CMC), higher = larger tumour); 64 % of control (endpoint: mean tumor weight, dose: 200.0 mg/kg/injection, schedule: Q01DX011 (ip), vehicle: carboxymethylcellulose (CMC), higher = larger tumour); 88 % of control (endpoint: mean tumor weight, dose: 400.0 mg/kg/injection, schedule: Q01DX011 (ip), vehicle: carboxymethylcellulose (CMC), higher = larger tumour); 34 % of control (endpoint: mean tumor weight, dose: 800.0 mg/kg/injection, schedule: Q01DX011 (ip), vehicle: carboxymethylcellulose (CMC), higher = larger tumour).
Take `O=P(NC12CC3CC(CC(C3)C1)C2)(N1CC1)N1CC1`: the T/C was 86 % of control (endpoint: median survival time, dose: 0.25 mg/kg/injection, schedule: Q01DX009 (ip), vehicle: Klucel (hydroxypropylcellulose) (HPC), higher = longer survival); 117 % of control (endpoint: median survival time, dose: 0.5 mg/kg/injection, schedule: Q01DX009 (ip), vehicle: Klucel (hydroxypropylcellulose) (HPC), higher = longer survival); 92 % of control (endpoint: median survival time, dose: 1.0 mg/kg/injection, schedule: Q01DX009 (ip), vehicle: Klucel (hydroxypropylcellulose) (HPC), higher = longer survival); 104 % of control (endpoint: median survival time, dose: 2.0 mg/kg/injection, schedule: Q01DX009 (ip), vehicle: Klucel (hydroxypropylcellulose) (HPC), higher = longer survival); 101 % of control (endpoint: median survival time, dose: 4.0 mg/kg/injection, schedule: Q01DX009 (ip), vehicle: Klucel (hydroxypropylcellulose) (HPC), higher = longer survival).
With `C[C@]12CC[C@H]3[C@@H](CC[C@]4(O)C[C@@H](O)CC[C@]34/C=N/O)[C@@]1(O)CC[C@@H]2C1=COC(=O)C1`, the T/C by setting is: (endpoint: mean tumor weight, dose: 1.87 mg/kg/injection, schedule: Q01DX011 (ip), vehicle: carboxymethylcellulose (CMC), higher = larger tumour) 34 % of control; (endpoint: mean tumor weight, dose: 3.75 mg/kg/injection, schedule: Q01DX011 (ip), vehicle: carboxymethylcellulose (CMC), higher = larger tumour) 58 % of control; (endpoint: mean tumor weight, dose: 15.0 mg/kg/injection, schedule: Q01DX011 (ip), vehicle: carboxymethylcellulose (CMC), higher = larger tumour) 92 % of control; (endpoint: mean tumor weight, dose: 30.0 mg/kg/injection, schedule: Q01DX011 (ip), vehicle: carboxymethylcellulose (CMC), higher = larger tumour) 61 % of control.
For the compound `OC(CBr)C(O)C(O)C(O)CBr` (stereo not given), the T/C runs as follows: (endpoint: mean tumor weight (est.), dose: 75.0 mg/kg/injection, schedule: Q01DX009 (ip), vehicle: Klucel (hydroxypropylcellulose) (HPC), higher = larger tumour) 107 % of control; (endpoint: mean tumor weight (est.), dose: 150.0 mg/kg/injection, schedule: Q01DX009 (ip), vehicle: Klucel (hydroxypropylcellulose) (HPC), higher = larger tumour) 92 % of control; (endpoint: mean tumor weight (est.), dose: 300.0 mg/kg/injection, schedule: Q01DX009 (ip), vehicle: Klucel (hydroxypropylcellulose) (HPC), higher = larger tumour) 63 % of control; under setting [1], 103 % of control; under setting [2], 82 % of control; (endpoint: mean tumor weight, dose: 100.0 mg/kg/injection, schedule: Q01DX011 (ip), vehicle: saline, higher = larger tumour) 46 % of control and 51 % of control. The T/C (endpoint: mean tumor weight, dose: 400.0 mg/kg/injection, schedule: Q01DX011 (ip), vehicle: saline, higher = larger tumour) is 118 % of control; the T/C (endpoint: median survival time, dose: 100.0 mg/kg/injection, schedule: Q01DX009 (ip), vehicle: saline, higher = longer survival) was 107 % of control; the T/C (endpoint: median survival time, dose: 150.0 mg/kg/injection, schedule: Q01DX009 (ip), vehicle: Klucel (hydroxypropylcellulose) (HPC), higher = longer survival) is 113 % of control; the T/C (endpoint: median survival time, dose: 200.0 mg/kg/injection, schedule: Q01DX009 (ip), vehicle: saline, higher = longer survival) was 102 % of control; the T/C (endpoint: median survival time, dose: 400.0 mg/kg/injection, schedule: Q01DX009 (ip), vehicle: saline, higher = longer survival) was 107 % of control.
Regarding `CCC(c1ccc(O)cc1)C(CC)c1ccc(OC)cc1` (stereo not given), the T/C (endpoint: mean tumor weight, dose: 4.0 mg/kg/injection, schedule: Q01DX011 (sc), vehicle: steriod suspending solution, higher = larger tumour) was 60 % of control; the T/C (endpoint: mean tumor weight, dose: 8.0 mg/kg/injection, schedule: Q01DX011 (sc), vehicle: steriod suspending solution, higher = larger tumour) is 36 % of control; the T/C (endpoint: mean tumor weight, dose: 16.0 mg/kg/injection, schedule: Q01DX011 (sc), vehicle: steriod suspending solution, higher = larger tumour) was 33 % of control; the T/C (endpoint: mean tumor weight, dose: 31.3 mg/kg/injection, schedule: Q01DX011 (ip), vehicle: saline, higher = larger tumour) is 23 % of control; the T/C (endpoint: mean tumor weight, dose: 32.0 mg/kg/injection, schedule: Q01DX011 (sc), vehicle: steriod suspending solution, higher = larger tumour) is 16 % of control; the T/C (endpoint: mean tumor weight, dose: 62.5 mg/kg/injection, schedule: Q01DX011 (ip), vehicle: saline, higher = larger tumour) is 21 % of control. In addition, the T/C (endpoint: mean tumor weight, dose: 125.0 mg/kg/injection, schedule: Q01DX011 (ip), vehicle: saline, higher = larger tumour) was 16 % of control and the T/C (endpoint: mean tumor weight, dose: 250.0 mg/kg/injection, schedule: Q01DX011 (ip), vehicle: saline, higher = larger tumour) was 13 % of control.
For the compound `N#CCC(=O)O`, the T/C is 103 % of control (endpoint: mean tumor weight, dose: 29.0 mg/kg/injection, schedule: Q01DX011 (ip), vehicle: saline, higher = larger tumour); 104 % of control (endpoint: mean tumor weight, dose: 44.0 mg/kg/injection, schedule: Q01DX011 (ip), vehicle: saline, higher = larger tumour); 47 % of control (endpoint: mean tumor weight, dose: 66.0 mg/kg/injection, schedule: Q01DX011 (ip), vehicle: other, higher = larger tumour); 64 % of control (endpoint: mean tumor weight, dose: 66.0 mg/kg/injection, schedule: Q01DX011 (ip), vehicle: saline, higher = larger tumour).
In the case of `Nc1c(Cl)c(Cl)nc(C(=O)O)c1Cl`, the T/C runs as follows: (endpoint: median survival time, dose: 25.0 mg/kg/injection, schedule: Q02DX009 (ip), vehicle: Klucel (hydroxypropylcellulose) (HPC), higher = longer survival) 109 % of control; (endpoint: median survival time, dose: 25.0 mg/kg/injection, schedule: Q02DX009 (ip), vehicle: distilled water + Tween-80, higher = longer survival) 121 % of control; (endpoint: median survival time, dose: 50.0 mg/kg/injection, schedule: Q02DX009 (ip), vehicle: Klucel (hydroxypropylcellulose) (HPC), higher = longer survival) 98 % of control; (endpoint: median survival time, dose: 50.0 mg/kg/injection, schedule: Q02DX009 (ip), vehicle: distilled water + Tween-80, higher = longer survival) 104 % of control; (endpoint: median survival time, dose: 100.0 mg/kg/injection, schedule: Q02DX009 (ip), vehicle: Klucel (hydroxypropylcellulose) (HPC), higher = longer survival) 91 % of control; (endpoint: median survival time, dose: 100.0 mg/kg/injection, schedule: Q02DX009 (ip), vehicle: distilled water + Tween-80, higher = longer survival) 88 % of control. In addition, the T/C (endpoint: median survival time, dose: 200.0 mg/kg/injection, schedule: Q02DX009 (ip), vehicle: Klucel (hydroxypropylcellulose) (HPC), higher = longer survival) was 92 % of control and the T/C (endpoint: median survival time, dose: 200.0 mg/kg/injection, schedule: Q02DX009 (ip), vehicle: distilled water + Tween-80, higher = longer survival) is 100 % of control.
